Counter-ions that a name gives are not always drawn.
Tests used:
Parkinson's disease [1] = settings: patients undergoing treatment with L-Dopa; cited from earlier work
rabbits = assay: Skin irritation study in rabbits, modified Draize irritation protocol; assay type: in vivo, rabbit; settings: conclusion in words from Table 4
Procedure: The skin irritation study in rabbits using a modified Draize irritation protocol. The treatments included:
1) different activities of ropinirole in the selected vehicle that gave the highest flux of ropinirole slat; and
2) ropinirole in two selected vehicles. A proprietary vehicle that has been used in skin flux studies were tested as a control.
Mineral oil was used as the negative control in the study. The mean primary irritation score for each treatment was calculated.
3) ropinirole and base in three prototype systems (36048C, 36047G and 36040F; see Table 4 in Example 3, below).
Various ropinirole formulations were prepared and irritation studies conducted as described above.

dopamine D2 = settings: versus bromocriptine and pergolide; cited from earlier work
Parkinson's disease [2] = settings: statement in words; cited from earlier work
[3] = in water at 20° C.; cited from earlier work

N[C@@H](Cc1ccc(O)c(O)c1)C(=O)O [L-Dopa]
therapeutic response fluctuations (Parkinson's disease [1]): severe therapeutic response fluctuations

CCCN(CCC)CCc1cccc2c1CC(=O)N2 [ropinirole, 4-[2-(dipropylamino)ethyl]-1,3-dihydro-2H-indol-2-one]
irritation encountered upon transdermal administration (rabbits): minimal
specificity as dopamine D2 agonist (dopamine D2): more specific dopamine D2 agonist than other dopamine agonists such as bromocriptine and pergolide
effectiveness in the treatment of Parkinson's disease (Parkinson's disease [2]): effective in the treatment of Parkinson's disease

CCCN(CCC)CCc1cccc2c1CC(=O)N2 [Ropinirole hydrochloride]
solubility [3]: 133 mg/mL
